Results on seven compounds are retold here after US4370266A, “Mycoplanecin derivatives and their preparation” (Sankyo Company, Limited, priority 1980, dated 1983).

Data set [1] relates to Mycobacterium smegmatis ATCC 607. Description: Minimal inhibitory concentration (MIC), Mycobacterium smegmatis ATCC 607. To be noted: Mycolicibacterium smegmatis, ATCC607, 168 h.
For data set [2], the system named is microorganisms of the genus Mycobacterium. To be noted: earlier applications on Mycoplanecin A; cited from earlier work.
The next data set concerns Micrococcus luteus. As to the kind of experiment: MIC, Micrococcus luteus. The settings on record: 24 h.
The subject of data set [3] is Pseudomonas aeruginosa SANK 73860. As to the kind of experiment: MIC, Pseudomonas aeruginosa SANK 73860. The settings on record: SANK73860, 24 h.
For data set [4], the system named is Staphylococcus aureus 209P JC-1. Description: MIC, Staphylococcus aureus 209P JC-1. To be noted: 24 h.
Data set [5] deals with Bacillus subtilis PCI 219. Description: MIC, Bacillus subtilis PCI 219. The settings on record: PCI219, 24 h.
Data set [6] has as its system Klebsiella pneumoniae PCI 602. As to the kind of experiment: MIC, Klebsiella pneumoniae PCI 602. To be noted: PCI602, 24 h.
Another data set deals with Candida albicans Yu 1200. As to the kind of experiment: MIC, Candida albicans Yu 1200. Format: cell-based.
A further data set is described as follows: Solubility. To be noted: for Solubility: soluble in: organic solvents; for Solubility: insoluble in: water and, where named, other solvents.
Data set [7] concerns Trichophyton mentagrophytes SANK 22374. Description: MIC, Trichophyton mentagrophytes SANK 22374. Format: cell-based.
The next data set relates to Proteus vulgaris OX19. Description: MIC, Proteus vulgaris OX19. To be noted: OX19, 24 h.
Another data set relates to Proteus mirabilis 1331. Description: MIC, Proteus mirabilis 1331. To be noted: Proteus mirabilis, 1331, 24 h.
The test system of data set [8] is Aspergillus oryzae SANK 11262. Description: MIC, Aspergillus oryzae SANK 11262. Format: cell-based.
In data set [9] the test system is Xanthomonas oryzae SANK 70274. As to the kind of experiment: microbe, parasite or virus in culture. It is filed as cell-based. The settings on record: SANK70274, 72 h.
Data set [10] concerns Penicillium chrysogenum SANK 12768. As to the kind of experiment: MIC, Penicillium chrysogenum SANK 12768. Format: cell-based.
For data set [11], the system named is Escherichia coli NIHJ JC-2. As to the kind of experiment: MIC, Escherichia coli NIHJ JC-2. The settings on record: NIHJJC2, 24 h.
Data set [12] deals with Piricularia oryzae SANK 16975. As to the kind of experiment: microbe, parasite or virus in culture. It is filed as cell-based. To be noted: 48 h.

SMILES strings stand for the structures. In brackets after ≈: the same amount, converted by molar mass. Read-outs that look alike come from different tables or passages of the source. Numbered stars: 1 amine (or outer) side, 2 acyl side, 3 side chain; on linkers, the order of the positions; unused ones are H or OH. Bridge positions count the residues as written; N and C are the ends. Square brackets hold non-standard residues; d marks the D form. Peptide text beside a SMILES is read from it. * marks the point of attachment. ξ: configuration not given here. X1 = CCC1CC(C(=O)[*:2])N([*:1])C1; Butanoyl(2-oxo) = CCC(=O)C(=O)*; NMeAhp(2) = CCCCC[CH](NC)C(=O)O; ξPro(4ξ-Me) = CC1CNC(C(=O)O)C1; NMeT = CN[CH](C(=O)O)[CH](C)O; NMeL = CN[CH](CC(C)C)C(=O)O; hLeu = CC(C)CC[CH](N)C(=O)O; NMeV = CN[CH](C(=O)O)C(C)C; X2 = CCC(O)C(=O)*

For `CCCCCC1C(=O)NCC(=O)OC(C)C(N(C)C(=O)C2CC(CC)CN2C(=O)C(C(C)C)N(C)C(=O)C(O)CC)C(=O)NC(CC(C)C)C(=O)N2CC(C)CC2C(=O)NC(CCC(C)C)C(=O)N(C)C(C(C)C)C(=O)N2CCCC2C(=O)N1C` (stereo not drawn) [Compound (IIIa)] (X2-[NMeV][X1][NMeT]L[ξPro(4ξ-Me)][hLeu][NMeV]P[NMeAhp(2)]G; ester 3-C; configuration not given here), in data set [1], the MIC turned out to be 0.05 µg/mL (≈ 0.0417 µM).

In turn, `CCCCCC1C(=O)NCC(=O)OC(C)C(N(C)C(=O)C2CC(CC)CN2)C(=O)NC(CC(C)C)C(=O)N2CC(C)CC2C(=O)NC(CCC(C)C)C(=O)N(C)C(C(C)C)C(=O)N2CCCC2C(=O)N1C` (stereo not drawn) [Compound (IIIb)] (H-[X1][NMeT]L[ξPro(4ξ-Me)][hLeu][NMeV]P[NMeAhp(2)]G; ester 2-C; configuration not given here) gave an MIC in [1] of 6.25 µg/mL (≈ 6.25 µM).

With `CCC(O)C(=O)N(C)C(C(=O)N1CC(C)CC1C(=O)N(C)C1C(=O)NC(CC(C)C)C(=O)N2CC(C)CC2C(=O)NC(CCC(C)C)C(=O)N(C)C(C(C)C)C(=O)N2CCCC2C(=O)N(C)C(CC(C)C)C(=O)NCC(=O)OC1C)C(C)C` (stereo not drawn) [Compound (IIa)], the MIC in data set [1] came out at 0.05 µg/mL (≈ 0.0427 µM).

In [1], `CC(C)CCC1NC(=O)C2CC(C)CN2C(=O)C(CC(C)C)NC(=O)C(N(C)C(=O)C2CC(C)CN2)C(C)OC(=O)CNC(=O)C(CC(C)C)N(C)C(=O)C2CCCN2C(=O)C(C(C)C)N(C)C1=O` (stereo not drawn) [Compound (IIb)] had an MIC of 6.25 µg/mL (≈ 6.43 µM).

As to `CCC(=O)C(=O)N(C)C(C(=O)N1CC(CC)CC1C(=O)N(C)C1C(=O)NC(CC(C)C)C(=O)N2CC(C)CC2C(=O)NC(CCC(C)C)C(=O)N(C)C(C(C)C)C(=O)N2CCCC2C(=O)N(C)C(CC(C)C)C(=O)NCC(=O)OC1C)C(C)C` (stereo not drawn) [Mycoplanecin A] ({Butanoyl(2-oxo)}-[NMeV][X1][NMeT]L[ξPro(4ξ-Me)][hLeu][NMeV]P[NMeL]G; ester 3-C; configuration not given here), in [2], the antibacterial activity entry is “antibacterial activity, especially against microorganisms of the genus Mycobacterium”.

With `CCC(=O)C(=O)N(C)C(C(=O)N1CC(C)CC1C(=O)N(C)C1C(=O)NC(CC(C)C)C(=O)N2CC(C)CC2C(=O)NC(CCC(C)C)C(=O)N(C)C(C(C)C)C(=O)N2CCCC2C(=O)N(C)C(CC(C)C)C(=O)NCC(=O)OC1C)C(C)C` (stereo not drawn) [Mycoplanecin B], the MIC was 0.0125 µg/mL (≈ 0.0107 µM) in the data set on Micrococcus luteus; over 400 µg/mL in data set [3]; over 400 µg/mL in data set [4]; over 400 µg/mL in data set [5]; over 400 µg/mL in data set [6]; over 400 µg/mL against Candida albicans Yu 1200 (YU1200, 48 h). The MIC in data set [7] (SANK22374, 48 h) is over 400 µg/mL; in the data set on Proteus vulgaris OX19, over 400 µg/mL; in the data set with Proteus mirabilis 1331, over 400 µg/mL; in [8] (SANK11262, 48 h) it was over 400 µg/mL; in data set [9] (read-out: MIC), 12.5 µg/mL (≈ 10.7 µM); in data set [10] (SANK12768, 48 h), over 400 µg/mL. Moreover, the figures for the MIC in [11], in data set [12] and in data set [1] were over 400 µg/mL, over 400 µg/mL and 0.05 µg/mL (≈ 0.0428 µM), respectively. Further, the “Solubility: soluble in” value in “Solubility” was “Soluble in methanol, ethanol, ethyl acetate, acetone and chloroform”. Besides, the “Solubility: insoluble in” value in the data set “Solubility” is reported as “Insoluble in water”.

Turning to `CCCCCC1C(=O)NCC(=O)OC(C)C(N(C)C(=O)C2CC(CC)CN2C(=O)C(C(C)C)N(C)C(=O)C(=O)CC)C(=O)NC(CC(C)C)C(=O)N2CC(C)CC2C(=O)NC(CCC(C)C)C(=O)N(C)C(C(C)C)C(=O)N2CCCC2C(=O)N1C` (stereo not drawn) [Mycoplanecin C] ({Butanoyl(2-oxo)}-[NMeV][X1][NMeT]L[ξPro(4ξ-Me)][hLeu][NMeV]P[NMeAhp(2)]G; ester 3-C; configuration not given here), the MIC against Micrococcus luteus was 0.0125 µg/mL (≈ 0.0104 µM); in data set [3] it was over 400 µg/mL; in data set [4], over 400 µg/mL; in [5] it was over 400 µg/mL; in data set [6] it was over 400 µg/mL; in the data set on Candida albicans Yu 1200 (YU1200, medium S: 48 hours at 26° C. in Sabouraud's agar, read-out: MIC), over 400 µg/mL. The MIC in [7] (SANK22374, medium S: 48 hours at 26° C. in Sabouraud's agar, read-out: MIC) was over 400 µg/mL; in the data set with Proteus vulgaris OX19, over 400 µg/mL; against Proteus mirabilis 1331, over 400 µg/mL; in data set [8] (SANK11262, medium S: 48 hours at 26° C. in Sabouraud's agar, read-out: MIC), over 400 µg/mL; in data set [9], 12.5 µg/mL (≈ 10.4 µM); in data set [10] (SANK12768, medium S: 48 hours at 26° C. in Sabouraud's agar, read-out: MIC), over 400 µg/mL. Besides, the results for the MIC in data set [11], in [12] and in data set [1] were over 400 µg/mL, over 400 µg/mL and 0.05 µg/mL (≈ 0.0418 µM), respectively. The “Solubility: soluble in” value in the data set “Solubility” was “Soluble in methanol, ethanol, ethyl acetate, acetone and chloroform”. Besides, in “Solubility”, the “Solubility: insoluble in” value is “Insoluble in water”.
